Here are results for 43 compounds from PMC5118696, “Identification of inhibitors that dually target the new permeability pathway and dihydroorotate dehydrogenase in the blood stage of Plasmodium falciparum” (Scientific Reports, 2016).

In experiment [1] the test system is Hyp1-NLuc Plasmodium falciparum-infected erythrocytes (new permeability pathway, NPP). In words: microbe, parasite or virus in culture. The conditions noted are these: Erythrocyte, 0.33 h, read-out: Mean RLU at 28 min (As % of DMSO control).
Experiment [2] has the same test system. In words: microbe, parasite or virus in culture. The conditions noted are these: Erythrocyte, 0.33 h, read-out: % of control remaining.

Like-named read-outs stand apart in the source and are kept apart here.

As for `Cc1ccc(S(=O)(=O)c2c(COC(=O)c3cccc(C)c3)c(-c3ccccc3)nn2C)cc1` [MMV665936], the activity at 2 µM stood at 97% in experiment [1] and 100% in experiment [2].

As to `CC(C)CCNCC(O)Cn1c2ccccc2c2ccccc21` (centres unmarked) [MMV006787], the activity at 2 µM in experiment [1] was 97.5%; in experiment [2], 98.6%.

In the case of `COc1ccc(C)c2sc(N(Cc3cccnc3)C(=O)c3ccc(C#N)cc3)nc12` [MMV001241], the activity at 2 µM in experiment [1] stood at 101%; in experiment [2], 100%.

For `COc1ccc(-n2ccnc2SCC(=O)Nc2cc(C)ccc2C)c(OC)c1` [MMV019258], the values for the activity at 2 µM in experiment [1] and in experiment [2] were 117% and 115%, respectively.

On to `Cc1cc(Nc2ccc(C)c(Cl)c2)n2nc(C(F)(F)F)nc2n1` [MMV665874], for which the activity at 2 µM was 107% in experiment [1] and 106% in experiment [2].

Turning to `COc1cc(OC)cc(N2C(=O)N(Cc3ccc(C(C)(C)C)cc3)c3ccccc3S2(=O)=O)c1` [MMV008173], the activity at 2 µM in experiment [1] is 103%; in experiment [2], 115%.

On to `CCOc1ccc(CN2CCN(CC(O)COc3ccc(OCC(O)CN4CCN(Cc5ccc(OCC)cc5)CC4)cc3)CC2)cc1` (centres unmarked) [MMV007092], for which the activity at 2 µM in experiment [1] stood at 105%; in experiment [2], 98.2%.

On to `CCOc1ccc(-c2nonc2NC(=O)c2cccc(C)c2)cc1OCC` [MMV665805], for which the activity at 2 µM in experiment [1] came to 106%; in experiment [2], 107%.

As for `Cc1ccc2cc3c(N)c4c(C)ccc(C)c4nc3nc2c1` [MMV666079], the activity at 2 µM in experiment [1] is 96%; in experiment [2] it was 104%.

In the case of `CC(Oc1ccc(NC(=O)c2cccs2)cc1)C(=O)c1ccc(Cl)cc1` (centres unmarked) [MMV665886], the results for the activity at 2 µM in experiment [1] and in experiment [2] were 86.9% and 84.1%, respectively.

Regarding `COc1cccc(C(=O)Nc2ccc(-c3nc4ccccc4[nH]3)cc2)c1` [MMV019762], the figures for the activity at 2 µM in experiment [1] and in experiment [2] were 96.5% and 97.1%, respectively.

Consider `CCOc1cc(Cl)c(C(C)NC(=O)c2cccc(OC)c2)cc1OCC` (centres unmarked) [MMV665803], for which the figures for the activity at 2 µM in experiment [1] and in experiment [2] were 113% and 124%, respectively.

Turning to `O=C(Nc1cccc(C(F)(F)F)c1)c1cc(Cl)ccc1O` [MMV665807], the activity at 2 µM in experiment [1] came out at 99%; in experiment [2] it was 105%.

Take `CCn1c2c(c(=N)c3c1CCC3)CCCC2` [MMV000340]: the activity at 2 µM in experiment [1] was 105%; in experiment [2], 104%.

As for `Cc1ccc(OCCCCCCNCCO)c(C)c1` [MMV666020], the activity at 2 µM in experiment [1] was 97%; in experiment [2], 97.1%.

On to `Cc1cc(NCCN2CCCCC2)c2ccc3ccccc3c2n1` [MMV006203], for which the activity at 2 µM in experiment [1] was 103%; in experiment [2], 99.9%.

As for `O=C(Nc1cccc(-c2nc3ccccc3[nH]2)c1)c1cccc(NC(=O)c2ccco2)c1` [MMV665883], the activity at 2 µM in experiment [1] is 107%; in experiment [2], 102%.

Take `CCOc1c(Cl)cc(CNC(C)C(O)c2ccccc2)cc1OC` (centres unmarked) [MMV665857]: the activity at 2 µM worked out at 100% in experiment [1] and 108% in experiment [2].

Consider `CCn1c(SCC(=O)Nc2cc(C(F)(F)F)ccc2Cl)nc2ccccc2c1=O` [MMV666103], for which the activity at 2 µM turned out to be 100% in experiment [1] and 113% in experiment [2].

On to `COc1ccc(C(O)(CCC(C)C)C(CN2CCOCC2)c2ccc(Cl)cc2)cc1` (centres unmarked) [MMV000617], for which the activity at 2 µM came out at 116% in experiment [1] and 131% in experiment [2].

On to `FC(F)(F)c1cccc(CNC2CCN(CCc3ccccc3)CC2)c1` [MMV665979], for which the activity at 2 µM in experiment [1] is 104%; in experiment [2], 112%.

For the compound `N=c1n(CCN2CCCCC2)c2ccccc2n1CC(=O)c1ccc(Cl)c(Cl)c1` [MMV396723], the activity at 2 µM was found to be 98.3% in experiment [1] and 91.7% in experiment [2].

As for `O=C1C2=C(Nc3ccccc3SC2c2ccccc2)c2ccccc21` (centres unmarked) [MMV645672], the activity at 2 µM in experiment [1] and in experiment [2] was 106% throughout.

For `CCOc1ccc(N2C(N)=NC(N)=NC2(C)C)cc1` [MMV667486], the activity at 2 µM stood at 98.6% in experiment [1] and 98% in experiment [2].

Regarding `O=C(Nc1ccc(N2CCN(Cc3ccccc3)CC2)cc1)c1cccs1` [MMV019670], the activity at 2 µM was 113% in experiment [1] and 112% in experiment [2].

With `c1ccc(-c2ccc(-c3nc4ccccc4[nH]3)cc2)cc1` [MMV665891], the activity at 2 µM turned out to be 109% in experiment [1] and 122% in experiment [2].

On to `COc1cc2c3cc1Oc1c(OC)c(OC)cc4c1C(Cc1ccc(O)c(c1)Oc1ccc(cc1)CC3N(C)CC2)N(C)CC4` (centres unmarked) [MMV007474], for which the activity at 2 µM was found to be 104% in experiment [1] and 103% in experiment [2].

Turning to `CCCCOC(=O)c1ccc(Nc2cc(C)nc3ccc(OC)cc23)cc1` [MMV665797], the values for the activity at 2 µM in experiment [1] and in experiment [2] were 104% and 107%, respectively.

For the compound `COc1ccc2c(=O)cc(C(Cl)(Cl)Cl)oc2c1` [MMV665820], the activity at 2 µM in experiment [1] was found to be 105%; in experiment [2], 102%.

Regarding `CC1=C(CC(=O)c2cccc([N+](=O)[O-])c2)C(=O)c2ccccc2C1=O` [MMV666125], the results for the activity at 2 µM in experiment [1] and in experiment [2] were 96.1% and 101%, respectively.

As for `CCN1CCN(c2c(C(=O)c3ccccc3)cnc3cc(OC)c(OC)cc23)CC1` [MMV008474], the activity at 2 µM is 97.3% in experiment [1] and 102% in experiment [2].

For the compound `COc1ccc(CNC2CCN(c3ccc(NC(=O)c4cccc(Cl)c4)cc3)CC2)cc1OC` [MMV666067], the activity at 2 µM in experiment [1] is 101%; in experiment [2] it was 111%.

Turning to `CN(C)c1ccc(N2C(N)=NC(N)=NC2(C)C)cc1` [MMV667487], the figures for the activity at 2 µM in experiment [1] and in experiment [2] were 97% and 98.1%, respectively.

With `Cc1ccc(NC(=O)Nc2cccc(Cl)c2)cc1F` [MMV000911], the figures for the activity at 2 µM in experiment [1] and in experiment [2] were 115% and 114%, respectively.

With `Cn1c(=O)c2cc(C(=O)NCCCN3CCCCCC3)sc2c2ccccc21` [MMV019313], the activity at 2 µM in experiment [1] came to 104%; in experiment [2] it was 74.1%.

On to `CN1C=C(c2ccc3ccccc3n2)C(c2c[nH]c3ccccc23)c2ccccc21` (centres unmarked) [MMV008160], for which the activity at 2 µM in experiment [1] is 91.7%; in experiment [2] it was 86%.

`CCN(Cc1ccccc1)C1CCN(Cc2cc(Br)ccc2O)CC1` [MMV019127]: the results for the activity at 2 µM in experiment [1] and in experiment [2] were 109% and 107%, respectively.

`CCOc1ccccc1CN1CCc2nc3cc(C(C)(C)C)nn3c(O)c2C1` [MMV396595]: the activity at 2 µM in experiment [1] was 88.3%; in experiment [2] it was 86.5%.

As to `COc1cc2c(cc1OC)C1=NNC(=O)C1=NC(C)(C)C2` [MMV084940], the activity at 2 µM in experiment [1] and in experiment [2] was 101% each time.

As to `CN1CCN(c2ccc(Nc3c4ccccc4nc4ccccc34)cc2)CC1` [MMV006172], the activity at 2 µM in experiment [1] is 97.7%; in experiment [2] it was 96.4%.

Turning to `CN1CCN(c2ncnc3c2[nH]c2ccc(Cl)cc23)CC1` [MMV396704], the values for the activity at 2 µM in experiment [1] and in experiment [2] were 95.9% and 95.6%, respectively.

Consider `CCCCN(CCCC)S(=O)(=O)c1ccc(NC(=O)c2ccco2)cc1` [MMV007881], for which the activity at 2 µM in experiment [1] came out at 104%; in experiment [2] it was 96.9%.

Take `CC(C)(C)CC(C)(C)NCC(O)COc1ccc2c(c1)CCC2` (centres unmarked) [MMV665817]: the figures for the activity at 2 µM in experiment [1] and in experiment [2] were 106% and 120%, respectively.
